According to paper PMC8000448, “Inhibitory Effects of Schisandra Lignans on Cytochrome P450s and Uridine 5′-Diphospho-Glucuronosyl Transferases in Human Liver Microsomes” (Pharmaceutics, 2021):
Read-outs that look alike come from different tables or passages of the source.

Assays:
CYP3A = CYP3A (Homo sapiens, UniProt P08684); assay: CYP3A inhibition in HLMs (midazolam, nifedipine, testosterone); conditions: pooled human liver microsomes; for IC50 at 10 min: HLMs;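 for all read-outs here: pooled HLMs at 0.25 mg/mL in phosphate buffer, inhibitor across 0–50 µM, 10 min reaction at 37 °C after preincubation, probe metabolite quantified by LC-MS/MS, triplicate incubations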
Procedure: Lignans were first dissolved in methanol. The final organic solvent concentration in the incubation media was ≤1.0% (v/v). The microsomal incubation was conducted using two cocktail sets containing non-interactive substrates: set A containing phenacetin, bupropion, amodiaquine, diclofenac, S-mephenytoin, and dextromethorphan as substrates for CYP1A2, CYP2B6, CYP2C8, CYP2C9, CYP2C19, and CYP2D6, respectively; and set B containing coumarin and chlorzoxazone as substrates for CYP2A6 and CYP2E1, and midazolam, nifedipine, and testosterone as substrates for CYP3A4 (Table 1). These substrates are known to be selective for each P450 isoforms. Incubation mixtures containing potassium phosphate buffer (0.1 M, pH 7.4), pooled HLMs (0.25 mg/mL), P450 probe substrate cocktails, and lignan (0~50 μM) were pre-incubated at 37 °C (5 min). Following pre-incubation, an NADPH generating system (1.3 mM NADP^+, 3.3 mM G6P, 1 unit/mL G6PDH, and 3.3 mM MgCl2) was added to initiate the reaction, and further incubated for 10 min. The reaction was quenched with 50 μL of cold acetonitrile containing internal standard (IS; 7 nM trimipramine). After centrifugation at 14,000 rpm (5 min at 4 °C), aliquots of supernatants were filtered through a 0.2 μm membrane filter and were measured by liquid chromatography-tandem mass spectrometry (LC-MS/MS). All microsomal incubations were performed in triplicate.

CYP2E1 = molecular target: T1, CYP2E1 (Homo sapiens, UniProt P05181); assay: CYP2E1 inhibition in HLMs (chlorzoxazone); format: in vitro ADME
T1 construct: pooled HLMs (0.25 mg/mL); tissue XenoTech H2630; host or cells: pooled human liver microsomes, mixed gender
Procedure: (§1) Lignans were first dissolved in methanol. […] All microsomal incubations were performed in triplicate.

UGT1A1 = molecular target: T2, UGT1A1 (Homo sapiens, UniProt P22309); assay: UGT1A1 inhibition in HLMs (SN-38); format: in vitro ADME; conditions: average in triplicate, read-out: IC50, UGT 1A1
T2 construct: pooled HLMs (0.25 mg/mL); tissue XenoTech H2630; host or cells: pooled human liver microsomes, mixed gender
T2 sequence (P22309 26-533): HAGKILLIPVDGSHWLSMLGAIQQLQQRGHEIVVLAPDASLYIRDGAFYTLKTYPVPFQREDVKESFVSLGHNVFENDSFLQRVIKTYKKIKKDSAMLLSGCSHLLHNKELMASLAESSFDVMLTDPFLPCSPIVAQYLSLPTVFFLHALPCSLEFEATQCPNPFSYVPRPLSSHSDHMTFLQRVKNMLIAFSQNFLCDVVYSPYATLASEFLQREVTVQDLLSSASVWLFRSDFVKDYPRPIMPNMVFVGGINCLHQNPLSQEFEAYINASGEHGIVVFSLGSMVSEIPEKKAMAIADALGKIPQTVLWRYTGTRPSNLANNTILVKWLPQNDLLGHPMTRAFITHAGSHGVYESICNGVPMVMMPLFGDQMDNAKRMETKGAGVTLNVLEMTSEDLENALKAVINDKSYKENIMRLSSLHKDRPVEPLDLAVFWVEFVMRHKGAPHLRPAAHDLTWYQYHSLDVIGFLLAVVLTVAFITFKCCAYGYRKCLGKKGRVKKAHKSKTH
Procedure: (§2) The inhibitory potential of six lignans on six UGT activities was evaluated using the previously developed cocktail method with slight modifications. […] These substrates are known to be selective for each UGT isoforms.

UGT1A4 = molecular target: T3, UGT1A4 (Homo sapiens, UniProt P22310); assay: UGT1A4 inhibition in HLMs (trifluoperazine); format: in vitro ADME; conditions: average in triplicate, read-out: IC50, UGT 1A4
T3 construct: pooled HLMs (0.25 mg/mL); tissue XenoTech H2630; host or cells: pooled human liver microsomes, mixed gender
T3 sequence (P22310 29-534): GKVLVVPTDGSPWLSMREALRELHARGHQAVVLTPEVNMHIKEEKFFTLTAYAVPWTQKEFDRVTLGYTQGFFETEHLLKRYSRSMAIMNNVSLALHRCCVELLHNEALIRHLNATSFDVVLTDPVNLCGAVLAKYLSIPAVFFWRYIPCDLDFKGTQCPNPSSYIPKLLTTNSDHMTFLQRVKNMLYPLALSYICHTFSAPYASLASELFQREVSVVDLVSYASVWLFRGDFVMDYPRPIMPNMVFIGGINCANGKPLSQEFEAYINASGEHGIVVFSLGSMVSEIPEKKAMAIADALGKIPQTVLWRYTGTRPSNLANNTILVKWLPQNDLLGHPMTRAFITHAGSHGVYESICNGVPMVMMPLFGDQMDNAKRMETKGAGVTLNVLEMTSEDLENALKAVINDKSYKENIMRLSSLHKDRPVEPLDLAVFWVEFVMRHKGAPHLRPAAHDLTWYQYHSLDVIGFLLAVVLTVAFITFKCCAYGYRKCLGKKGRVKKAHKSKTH
Procedure: as §2

UGT2B7 = molecular target: T4, UGT2B7 (Homo sapiens, UniProt P16662); assay: UGT2B7 inhibition in HLMs (naloxone); format: in vitro ADME; conditions: average in triplicate, read-out: IC50, UGT 2B6 (so in the source)
T4 construct: pooled HLMs (0.25 mg/mL); tissue XenoTech H2630; host or cells: pooled human liver microsomes, mixed gender
T4 sequence (P16662 24-529): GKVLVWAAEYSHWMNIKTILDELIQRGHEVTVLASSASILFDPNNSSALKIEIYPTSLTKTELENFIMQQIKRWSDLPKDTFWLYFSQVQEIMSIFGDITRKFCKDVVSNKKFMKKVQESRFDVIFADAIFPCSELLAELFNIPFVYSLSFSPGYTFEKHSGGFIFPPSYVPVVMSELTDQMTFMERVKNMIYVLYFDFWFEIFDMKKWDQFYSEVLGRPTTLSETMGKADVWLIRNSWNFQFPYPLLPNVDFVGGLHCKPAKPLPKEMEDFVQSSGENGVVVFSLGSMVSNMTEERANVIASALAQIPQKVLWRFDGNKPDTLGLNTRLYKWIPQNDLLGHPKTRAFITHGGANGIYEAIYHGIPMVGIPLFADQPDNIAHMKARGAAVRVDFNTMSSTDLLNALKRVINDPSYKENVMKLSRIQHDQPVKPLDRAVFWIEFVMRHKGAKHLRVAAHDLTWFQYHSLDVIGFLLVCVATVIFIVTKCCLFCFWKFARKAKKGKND
Procedure: as §2

CYP2C8 = molecular target: T5, CYP2C8 (Homo sapiens, UniProt P10632); assay: CYP2C8 inhibition in HLMs (amodiaquine); format: in vitro ADME
T5 construct: pooled HLMs (0.25 mg/mL); tissue XenoTech H2630; host or cells: pooled human liver microsomes, mixed gender
T5 sequence (P10632 1-490): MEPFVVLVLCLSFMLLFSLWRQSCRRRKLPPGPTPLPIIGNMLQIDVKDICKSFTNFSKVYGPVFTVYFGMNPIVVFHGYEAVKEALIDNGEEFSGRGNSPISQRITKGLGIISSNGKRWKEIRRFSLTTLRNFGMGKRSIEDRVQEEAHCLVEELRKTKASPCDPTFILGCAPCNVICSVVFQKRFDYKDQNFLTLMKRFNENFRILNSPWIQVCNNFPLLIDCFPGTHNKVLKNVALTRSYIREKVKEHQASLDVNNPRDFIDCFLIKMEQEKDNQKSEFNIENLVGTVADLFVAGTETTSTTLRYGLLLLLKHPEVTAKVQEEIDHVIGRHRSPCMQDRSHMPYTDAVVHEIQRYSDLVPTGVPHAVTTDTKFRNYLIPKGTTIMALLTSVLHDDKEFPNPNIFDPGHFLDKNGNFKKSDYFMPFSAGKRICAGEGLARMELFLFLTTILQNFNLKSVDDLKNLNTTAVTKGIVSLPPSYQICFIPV
Procedure: as §1

[1] = pH 7.4, IC50, CYP3A activity (across probe substrates), reversible inhibition, probe substrate not singled out
[2] = pH 7.4, probe midazolam (cocktail set B), IC50 RI, CYP3A (midazolam), midazolam, reversible inhibition
[3] = pH 7.4, probe midazolam (cocktail set B), IC50 TDI, CYP3A (midazolam), midazolam, 30 min pre-incubation with NADPH generating system
[4] = pH 7.4, probe nifedipine (cocktail set B), IC50 RI, CYP3A (nifedipine), nifedipine, reversible inhibition
[5] = pH 7.4, probe nifedipine (cocktail set B), IC50 TDI, CYP3A (nifedipine), nifedipine, 30 min pre-incubation with NADPH generating system
[6] = pH 7.4, probe testosterone (cocktail set B), IC50 RI, CYP3A (testosterone), testosterone, reversible inhibition
[7] = pH 7.4, probe testosterone (cocktail set B), IC50 TDI, CYP3A (testosterone), testosterone, 30 min pre-incubation with NADPH generating system
[8] = 30 min pre-incubation with NADPH generating system, read-out: IC50 TDI, CYP2E1
[9] = reversible inhibition, read-out: IC50 RI, CYP2E1
[10] = 30 min pre-incubation with NADPH generating system, read-out: IC50 TDI, CYP2C8
[11] = reversible inhibition, read-out: IC50 RI, CYP2C8

Sequence of CYP3A (P08684 2-503): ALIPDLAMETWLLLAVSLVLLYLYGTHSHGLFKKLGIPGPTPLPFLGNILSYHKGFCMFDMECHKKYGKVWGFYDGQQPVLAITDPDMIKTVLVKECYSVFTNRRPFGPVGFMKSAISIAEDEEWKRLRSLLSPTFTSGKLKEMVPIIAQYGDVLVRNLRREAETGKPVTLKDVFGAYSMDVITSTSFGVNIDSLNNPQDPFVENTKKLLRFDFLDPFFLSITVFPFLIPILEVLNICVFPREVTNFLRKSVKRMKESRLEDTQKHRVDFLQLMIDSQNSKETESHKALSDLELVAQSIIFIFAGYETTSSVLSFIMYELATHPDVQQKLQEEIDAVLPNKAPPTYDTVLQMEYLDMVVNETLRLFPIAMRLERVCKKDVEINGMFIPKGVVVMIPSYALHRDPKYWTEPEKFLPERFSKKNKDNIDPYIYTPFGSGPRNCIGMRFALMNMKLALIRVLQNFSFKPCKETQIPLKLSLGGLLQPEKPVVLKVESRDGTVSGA
T1 sequence (P05181 whole entry): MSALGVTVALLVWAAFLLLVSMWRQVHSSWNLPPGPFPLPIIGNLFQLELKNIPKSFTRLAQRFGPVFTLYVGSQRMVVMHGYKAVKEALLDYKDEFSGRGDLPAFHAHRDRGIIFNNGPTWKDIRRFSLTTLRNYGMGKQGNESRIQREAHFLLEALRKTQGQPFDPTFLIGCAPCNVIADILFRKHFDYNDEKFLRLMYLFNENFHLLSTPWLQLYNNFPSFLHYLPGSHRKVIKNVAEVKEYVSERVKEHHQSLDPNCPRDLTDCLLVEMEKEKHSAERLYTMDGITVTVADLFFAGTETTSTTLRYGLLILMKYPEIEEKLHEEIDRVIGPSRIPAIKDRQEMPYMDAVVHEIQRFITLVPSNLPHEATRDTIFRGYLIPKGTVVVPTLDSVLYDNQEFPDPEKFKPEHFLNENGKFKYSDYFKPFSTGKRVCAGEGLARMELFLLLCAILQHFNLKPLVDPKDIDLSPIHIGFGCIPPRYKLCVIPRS

SMILES | IC50 at 10 min (CYP3A; [1]) [µM] | IC50 at 10 min (CYP3A; [2]) [µM] | IC50 at 10 min (CYP3A; [3]) [µM] | IC50 at 10 min (CYP3A; [4]) [µM] | IC50 at 10 min (CYP3A; [5]) [µM] | IC50 at 10 min (CYP3A; [6]) [µM] | IC50 at 10 min (CYP3A; [7]) [µM] | IC50 (CYP2E1; [8]) [µM] | IC50 (CYP2E1; [9]) [µM] | IC50 (UGT1A1) [µM] | IC50 (UGT1A4) [µM] | IC50 (UGT2B7) [µM] | IC50 (CYP2C8; [10]) [µM] | IC50 shift at 10 min (CYP3A; pH 7.4, probe midazolam (cocktail set B)) | IC50 shift at 10 min (CYP3A; pH 7.4, probe nifedipine (cocktail set B)) | IC50 shift at 10 min (CYP3A; pH 7.4, probe testosterone (cocktail set B)) | IC50 shift at 10 min (CYP2E1; human, pooled human liver microsomes, pH 7.4, probe chlorzoxazone (cocktail set B), RI/TDI fold shift) | IC50 shift at 10 min (CYP2C8; human, pooled human liver microsomes, pH 7.4, probe amodiaquine, RI/TDI fold shift) | IC50 (CYP2C8; [11]) [µM]
COc1cc2c(c(OC)c1OC)-c1c(cc3c(c1OC)OCO3)C[C@H](C)[C@](C)(O)[C@H]2OC(=O)c1ccccc1 [Gomisin C, gomisin C] | 0.19 to 0.3 | 0.3 | 0.1 | 0.26 | 0.09 | 0.19 to 0.28 | 0.09 | 24.4 | > 50 | 24 | > 50 | > 50 | 5.8 |  |  |  |  |  | 
COc1cc2c(c(OC)c1OC)-c1c(cc3c(c1OC)OCO3)C[C@H](C)[C@H](C)C2 [Gomisin N, gomisin N] | 1.3 to 4.5 | 4.5 | 1.7 | 1.4 | 0.61 | 1.3 | 0.55 | 23.6 | > 50 | > 50 | > 50 | > 50 | 9.9 | 2.7 | 2.4 | 2.4 | > 2.1 | 3.2 | 31.7
COc1cc2c(c(OC)c1OC)-c1c(cc(OC)c(OC)c1OC)C[C@](C)(O)[C@@H](C)C2 [Schisandrin, schisandrin] | ≤ 16 | 10.5 | 35 | 16 | 43.3 | 5.8 | 20.6 | 36 | 4.2 | > 50 | > 50 | > 50 | > 50 |  |  |  |  |  | 22
COc1c2c(cc3c1-c1c(cc4c(c1OC)OCO4)C[C@H](C)[C@H](C)C3)OCO2 [Wuweizisu C, wuweizisu C] |  | 25.9 | 2.5 | 5.6 |  | 3.6 |  | 25.2 | > 50 | > 50 | > 50 | > 50 | 14.6 |  |  |  |  |  | 21
